From the Deep4Chem optical property database come the findings set out here.

The nature of the data set: solvent given as SMILES.

In the case of `CCN(CC)c1ccc2ccc(=O)oc2c1`, the emission maximum runs as follows: (in CC(C)=O) 430 nm; (in CCCCCC) 392 nm; (in CCCCCCC) 390 nm; (in CCCCO) 442 nm; (in CCCO) 442 nm; (in CCO) 443 nm. For the same compound, the emission maximum worked out at 405 nm (in CCOCC); 440 nm (in CN(C)C=O); 445 nm (in CO); 418 nm (in Cc1ccccc1); 412 nm (in ClC(Cl)(Cl)Cl); 435 nm (in ClC(Cl)Cl). Also, the emission maximum reads like this: (in ClCCl) 466 nm; (in OCCO) 445 nm; (in c1ccccc1) 395 nm.

`CCc1c(C)c2n(c1C)[B-](F)(F)[N+]1=C(c3ccc[nH]3)c3ccccc3C1=C2C`: the emission maximum runs as follows: (in C1CCOC1) 627 nm; (in CC#N) 623 nm; (in CCCCCC) 622 nm; (in CO) 622 nm; (in Cc1ccccc1) 630 nm; (in ClCCl) 629 nm.

Regarding `CC/[NH+]=c1\cc2oc3cc(NCCOC(=O)C(NC(=O)OC(C)(C)C)C(C)C)c4ccccc4c3nc-2cc1C` (stereo unspecified), the emission maximum runs as follows: (in CCO) 652 nm; (in O) 652 nm.

Regarding `COc1ccc(C2=[N+]3C(=Nc4c(-c5ccccc5)c5c(n4[B-]3(F)F)-c3ccc(OC)cc3CC5)C(c3ccccc3)=C2)cc1`, the emission maximum (in ClC(Cl)Cl) amounted to 732 nm.

For `CC(=O)OCCN1C(=O)c2cccc3c(Oc4ccccc4C)ccc(c23)C1=O`, for the setting “in ClC(Cl)Cl”, the emission maximum was determined as 419 nm.

Turning to `N#C/C(=C\c1cc(/C=C(\C#N)c2ccc(C(F)(F)F)cc2)c(-c2ccc(N(c3ccccc3)c3ccccc3)cc2)cc1-c1ccc(N(c2ccccc2)c2ccccc2)cc1)c1ccc(C(F)(F)F)cc1`, the emission maximum by setting is: (in C1CCCCC1) 478 nm; (in C1CCOC1) 587 nm; (in CCCCCC) 473 nm; (in CCOC(C)=O) 581 nm; (in Cc1ccccc1) 515 nm; (in ClC(Cl)Cl) 553 nm. The emission maximum (in ClCCl) worked out at 594 nm.

For the compound `CCCCCCCC[n+]1ccc(-c2cc[n+](CCCCCCCC)cc2)cc1`, for the setting “in CC#N”, the emission maximum amounted to 353 nm.

In the case of `CCCCCCCCCCCCN(CCCCCCCCCCCC)c1ccc2c(c1)oc(=O)c1c(=O)oc3ccccc3c12`, the emission maximum is 562 nm (in CS(C)=O) and 528 nm (in ClCCl).

For `O=C1CC(=O)Nc2cc(C(=O)O)ccc2N1`, for the setting “in CS(C)=O”, the emission maximum came out at 407 nm.

`COc1ccc2cc(C3=[N+]4C(=Nc5c(-c6ccccc6)cc(-c6ccc7cc(OC)ccc7c6)n5[B-]4(F)F)C(c4ccccc4)=C3)ccc2c1` had an emission maximum (in ClC(Cl)Cl) of 733 nm and an emission maximum (in ClCCl) of 733 nm.

For the setting “in C1CCCCC1”, `Nc1ccccc1` registered an emission maximum of 323.42 nm.

For `FC(F)(F)c1c(-n2c3ccccc3c3ccccc32)c(-n2c3ccccc3c3ccccc32)cc(-n2c3ccccc3c3ccccc32)c1-n1c2ccccc2c2ccccc21`, for the setting “in ClCCl”, the emission maximum is recorded as 440 nm.

`C[Si](C)(C)c1sc([Si](C)(C)C)c2c1sc1c2sc2sc3sc4c(sc5c([Si](C)(C)C)sc([Si](C)(C)C)c54)c3c21` yielded an emission maximum (in ClC(Cl)Cl) of 360 nm.

Consider `CN(C)c1ccc(-c2ccc(-c3cc(-c4ccccc4)c(-c4ccccc4)c(-c4ccccc4)c3-c3ccccc3)nc2)cc1`, for which the emission maximum (in ClC(Cl)Cl) came out at 429 nm.

Regarding `c1cc2cc(c1)c1cccc(c1)c1ccc3ccc4ccc(cc4c3c1)c1cccc(c1)c1cccc2c1`, the emission maximum (in Cc1ccccc1) was 382 nm.

In turn, `c1ccc(-c2nc(-c3ccccc3)nc(-c3ccc(-n4c5ccccc5c5cc6c7ccccc7n7c8ccccc8c(c54)c67)cc3)n2)cc1` yielded an emission maximum (in Cc1ccccc1) of 450 nm and an emission maximum (in O=P(c1ccccc1)(c1ccccc1)c1ccc2oc3ccc(P(=O)(c4ccccc4)c4ccccc4)cc3c2c1) of 460 nm.

For the setting “in ClC(Cl)Cl”, `COc1ccc(-c2nc(-c3ccc(C)cc3)c3ccccn23)cc1` returned an emission maximum of 521 nm.

`C1=C(c2ccc(-c3cccs3)s2)CCC(c2ccccc2)C1` (stereo unspecified) returned an emission maximum (in C1CCOC1) of 412 nm; an emission maximum (in CC#N) of 411 nm; an emission maximum (in CCCCCC) of 409 nm; an emission maximum (in CCO) of 411 nm; an emission maximum (in OCCOCCO) of 412 nm; an emission maximum (in c1ccncc1) of 417 nm.

On to `CN(C)c1ccc(C2=Nc3scc(-c4ccc([N+](=O)[O-])cc4)[n+]3[B-](F)(F)O2)cc1`, for which the emission maximum reads like this: (in C1CCOC1) 454 nm; (in CC#N) 453 nm; (in Cc1ccccc1) 447 nm; (in ClCCl) 454 nm.

Compound `COc1ccc(-c2nc(-c3ccccc3O)c(-c3ccccc3O)n2-c2ccc(C)cc2)cc1` showed an emission maximum (in C1CCOC1) of 357 nm, an emission maximum (in CS(C)=O) of 389 nm, an emission maximum (in ClC(Cl)Cl) of 410 nm and an emission maximum (in ClCCl) of 347 nm.

Turning to `C(=C\c1nc2ccccc2s1)/c1ccc(-c2nc3c4cccnc4c4ncccc4c3[nH]2)cc1`, the emission maximum turned out to be 469 nm (in C1CCOC1), 485 nm (in CC#N), 488 nm (in CO) and 472 nm (in ClCCl).

`COc1ccc(/C=C/c2ccncn2)cc1` returned an emission maximum (in ClCCl) of 418 nm.

Consider `CC1=CC(C)=[N+]2C1=C(c1ccc(I)cc1)c1c(C)cc(C)n1[B-]2(OC(C)C)OC(C)C`, for which, where the note is “in ClC(Cl)Cl”, the emission maximum is 517.73 nm.

Take `COc1c2ccccc2c(OC)c2c1c1cc(Cl)ccc1n2C`: the emission maximum by setting is: (in C1CCCCC1) 421 nm; (in CC#N) 432 nm; (in CO) 428 nm; (in ClCCl) 431 nm.

Take `COc1ccc(-c2nc3ccccc3nc2-c2ccc(OC)cc2)cc1`: the emission maximum reads like this: (in C1CCOC1) 432 nm; (in CC#N) 435 nm; (in CCCCCC) 423 nm; (in CN(C)C=O) 432 nm; (in Cc1ccccc1) 426 nm; (in ClC(Cl)Cl) 430 nm.

Compound `N#CC(/N=C/c1ccccc1O)=C(C#N)/N=C/c1ccccc1O` displayed an emission maximum (in CC#N) of 553 nm.

Turning to `Clc1nc(Cl)nc(Nc2cc3ccc4cccc5ccc(c2)c3c45)n1`, where the note is “in CCCCOCCCC”, the emission maximum came to 374 nm.

`CCn1c2ccccc2c2cc(C#Cc3cc(C#Cc4ccc5c(c4)c4ccccc4n5CC)nc(SC)n3)ccc21`: the emission maximum runs as follows: (in C1CCOC1) 449 nm; (in CCOC(C)=O) 446 nm; (in CN(C)C=O) 502 nm; (in Cc1ccccc1) 416 nm; (in ClCCl) 471 nm.

Regarding `N#Cc1ccc2cc(C#N)c3ccc4ccccc4c3c2c1`, the emission maximum (in ClC(Cl)Cl) came out at 420 nm.

Compound `CCOC(=O)CCCCCn1c2ccc(OC)cc2c(=O)c2cc3c(cc21)c(=O)c1cc(OC)ccc1n3CCCCCC(=O)OCC` came in with an emission maximum (in CCO) of 592 nm.

`CC(C)(C)c1ccc2c(c1)c1cc(C(C)(C)C)ccc1n2-c1ccc(N(c2ccc(-c3ccc(-c4ccc(-c5ccc(-c6ccc(N(c7ccc(-n8c9ccc(C(C)(C)C)cc9c9cc(C(C)(C)C)ccc98)cc7)c7ccc(-n8c9ccc(C(C)(C)C)cc9c9cc(C(C)(C)C)ccc98)cc7)cc6)cc5)c5nsnc45)cc3)cc2)c2ccc(-n3c4ccc(C(C)(C)C)cc4c4cc(C(C)(C)C)ccc43)cc2)cc1` showed an emission maximum (in ClCCl) of 513 nm.

On to `CN1C(=O)c2cccc3c(-n4c5ccccc5c5ccccc54)ccc(c23)C1=O`, for which the emission maximum (in C1CCOC1) stood at 537 nm, the emission maximum (in CCCCCC) is reported as 440 nm, the emission maximum (in ClC(Cl)Cl) is 489 nm and the emission maximum (in ClCCl) is recorded as 556 nm.

Turning to `CC1=NN(c2ccccc2)C(=O)/C1=C/c1cn(-c2ccccc2)nc1-c1ccccc1`, the emission maximum came out at 429 nm (in C1CCOC1); 407 nm (in C1COCCO1); 427 nm (in CCO); 422 nm (in CCOC(C)=O); 435 nm (in CN(C)C=O); 430 nm (in CO). Moreover, the emission maximum was 437 nm (in CS(C)=O), 416 nm (in Cc1ccccc1), 432 nm (in ClC(Cl)Cl) and 436 nm (in ClCCl).

In the case of `Cc1ccc(C2=C3C=CC(/C=C/c4ccccc4)=[N+]3[B-](F)(F)n3c(/C=C/c4ccccc4)ccc32)cc1`, the emission maximum by setting is: (in C1CCCCC1) 642 nm; (in C1CCOC1) 645 nm; (in C1COCCO1) 646 nm; (in CCOC(C)=O) 641 nm; (in CO) 639 nm; (in Cc1ccccc1) 649 nm. In addition, the emission maximum (in ClC(Cl)Cl) is listed as 647 nm.

In turn, `CCCCCCCCOc1cc(/C=C/c2ccncc2)c(OCCCCCCCC)cc1/C=C/c1ccncc1` displayed an emission maximum (in ClCCl) of 470 nm.

For `c1ccc(-c2nc(-c3ccccc3)nc(-c3ccc(-n4c5ccccc5c5cc(-n6c7ccccc7c7ccccc76)ccc54)c4c5ccccc5n(-c5ccccc5)c34)n2)cc1`, the emission maximum is recorded as 496.59 nm (in C1CCOC1), 429 nm (in Cc1ccccc1) and 531.36 nm (in ClCCl).

For the compound `N#Cc1c(N2CCCCC2)cc(-c2ccc3ccc4cccc5ccc2c3c45)c2c1-c1ccccc1C2`, under “in C1CCOC1”, the emission maximum is recorded as 460 nm.

The compound `CCN(CC)c1ccc2cc(-c3nc4cc(C(=O)Nc5ccccc5[N+](=O)[O-])ccc4o3)c(=O)oc2c1` had an emission maximum (in ClCCl) of 498 nm.

`CCOC(=O)c1cc(C(=O)OCC)c2cccc(O)c2n1`: the emission maximum (in CCO) turned out to be 527 nm.

Consider `COC(=O)C(NC(=O)OC(C)(C)C)c1ccc2oc(-c3cccc(Oc4ccccc4)c3)nc2c1` (stereo unspecified), for which the emission maximum by setting is: (in CC1CCCCC1) 325 nm; (in CC#N) 360 nm; (in CO) 348 nm.

As to `CC(C)(C)NC(=O)c1c([Si](C)(C)C)cc2ccc3cccc4ccc1c2c34`, for the setting “in ClC(Cl)Cl”, the emission maximum came out at 383 nm.

Take `c1ccc(Nc2nc(Nc3ccccc3)nc(Nc3cc4ccc5cccc6ccc(c3)c4c56)n2)cc1`: the emission maximum is, setting by setting: (in CC#N) 398 nm; (in CCCCOCCCC) 397 nm; (in CO) 399 nm.
